Data as given in EP0545103A1, “Insecticidal, acaricidal and molluscicidal 1-(substituted) thioalkylpyrroles” (priority 1991, dated 1993).

Columns and labels:
Type in all cases: in vivo
[1] = system: Diabrotic undecimpunctata howardi, 3rd instar southern corn rootworm; assay: Southern corn rootworm soil test; design: key: 0: no effect; 10-25% kill; 26-35% kill; 36-45% kill; 46-55% kill; 56-65% kill; 66-75% kill; 76-85% kill; 86-99% kill; 9: 100% kill; settings: mortality rating after 6 days
Description: Diabrotic undecimpunctata howardi, 3rd instar southern corn rootworm
One cc of fine talc is placed in a 30 mL wide-mouth screw-top glass jar. One mL of the appropriate acetone test solution is pipetted onto the talc so as to provide 1.25 and 0.25 mg of active ingredient per jar. The jars are set under a gentle air flow until the acetone is evaporated. The dried talc is loosened, 1 cc of millet seed is added to serve as food for the insects and 25 mL of moist soil is added to each jar. The jar is capped and the contents thoroughly mixed on a Vortex Mixer. Following this, ten 3rd instar rootworms are added to each jar and the jars are loosely capped to allow air exchange for the larvae. The treatments are held for 6 days when mortality counts are made. Missing larvae are presumed dead, since they decompose rapidly and can not be found. The concentrations used in this test correspond approximately to 50 and 10 kg/ha, respectively.
(§1) All of the above tests are rated according to the rating scale shown below.

[2] = system: Tetranychus urticae (OP-resistant strain), 2-spotted spider mite; assay: 2-spotted spider mite test, dipped infested limabean plants; design: key: 0: no effect; 10-25% kill; 26-35% kill; 36-45% kill; 46-55% kill; 56-65% kill; 66-75% kill; 76-85% kill; 86-99% kill; 9: 100% kill
Description: (§2) Test solutions are prepared by dissolving the test compound in a 35% acetone in water mixture to give a concentration of 10,000 ppm. Subsequent dilutions are made with water as needed.
Tetranychus urticae (OP-resistant strain), 2-spotted spider mite
Sieva limabean plants with primary leaves expanded to 7-8 cm are selected and cut back to one plant per pot. A small piece is cut from an infested leaf taken from the main colony and placed on each leaf of the test plants. This is done about 2 hours before treatment to allow the mites to move over to the test plant and to lay eggs. The size of the cut, infested leaf is varied to obtain about 100 mites per leaf. At the time of test treatment, the piece of leaf used to transfer the mites is removed and discarded. The newly mite-infested plants are dipped in the test solution for 3 seconds with agitation and set in the hood to dry. After 2 days one leaf is removed and mortality counts are made. After 5 days, another leaf is removed and observations are made of mortality of the eggs and/or newly emerged nymphs.
as §1

[3] = system: Aphis fabae, mixed instar, bean aphid; assay: Bean aphid spray test on nasturtium; design: key: 0: no effect; 10-25% kill; 26-35% kill; 36-45% kill; 46-55% kill; 56-65% kill; 66-75% kill; 76-85% kill; 86-99% kill; 9: 100% kill; settings: 100 ppm
Description: as §2
Aphis fabae, mixed instar, bean aphid
Pots containing single nasturtium plants (Tropaeolum sp.) about 5 cm tall are infested with about 100-200 aphids one day prior to treatment. Each pot is sprayed with the test solution for 2 revolutions of a 4 rpm turntable in a hood, using a #154 DeVilbiss atomizer. The spray tip is held about 15 cm from the plant and the spray directed so as to give complete coverage of the plants and the aphids. The sprayed pots are set on their sides on white enamel trays and mortality estimates are made after 2 days.
as §1

[4] = system: Heliothis virescens, egg, tobacco budworm; assay: Tobacco budworm egg test, dipped cotton leaf and eggs; design: key: 0: no effect; 10-25% kill; 26-35% kill; 36-45% kill; 46-55% kill; 56-65% kill; 66-75% kill; 76-85% kill; 86-99% kill; 9: 100% kill; settings: mortality rating after 3 days
Description: as §2
Heliothis virescens, egg, tobacco budworm
A young cotton leaf about 6-7cm in length is dipped in an agitated test suspension for about 3 seconds. Eggs are collected on a cheesecloth and the cloth is cut into 10-20mm squares, each containing approximately 50-100 eggs which are 6-30 hours old. The egg-containing cheesecloth square is similarly dipped in a test suspension and placed on a treated cotton leaf. The combination is dried in a hood and then placed in an 8 ounce Dixie® cup #2168-ST (240ml volume, 6cm tall, 9.5cm top diameter, 8.0cm bottom diameter) into which a 5cm length of damp dental wick has been placed. The cup is covered with a clear plastic lid and held for 3 days, after which mortality counts are made.
as §1

[5] = system: Spodoptera eridania, 3rd instar larvae, southern armyworm; assay: Southern armyworm systemic uptake (stem systemic) test; design: key: 0: no effect; 10-25% kill; 26-35% kill; 36-45% kill; 46-55% kill; 56-65% kill; 66-75% kill; 76-85% kill; 86-99% kill; 9: 100% kill; settings: cut stem in emulsion 3 days
Excerpt: Spodoptera eridania, systemic uptake, 3rd instar larvae, southern armyworm
Subsequent 10-fold dilutions are made with water as needed. Sieva limabean plants, with the primary leaves expanded to a length of 7-8 cm, are cut off at least 3 cm above the soil level to avoid contamination with soil bacteria which will cause decay of the stem during the test. The cut stem is placed in the test emulsion and wrapped with a bit of cotton to hold the stem off the bottom of the bottle and to limit evaporation. The treated stem is thus maintained for 3 days at 27° C to allow the test compound to be taken up into the plant. Following this, one leaf is removed from the plant and placed in a 100 x 10 mm petri dish with 10 southern armyworms as described above. Mortality counts and observations of feeding damage are made 3 and 5 days later.
as §1

[6] = system: Spodoptera eridania, 3rd instar larvae, southern armyworm; assay: Southern armyworm 7-day residual test; settings: R designates Residual: 7-day residual foliage, concentration not given; for ARMYWORM Day 3 R: rating at 3 days; for ARMYWORM Day 5 R: rating at 5 days
Description: as §2
Spodoptera eridania, 3rd instar larvae, southern armyworm, 7-day residual
The limabean leaves treated in the above test are maintained under high intensity lamps in the greenhouse for 7 days. These lamps duplicate the effects of a bright sunny day in June in New Jersey and are kept on for 14 hour day length. After 7 days, the foliage is sampled and assayed as in the above-said test.
as §1

[7] = system: Spodoptera eridania, 3rd instar larvae, southern armyworm; assay: Southern armyworm 3rd instar test, dipped limabean leaf; design: key: 0: no effect; 10-25% kill; 26-35% kill; 36-45% kill; 46-55% kill; 56-65% kill; 66-75% kill; 76-85% kill; 86-99% kill; 9: 100% kill; settings: for ARMYWORM Day 3: rating at 3 days; for ARMYWORM Day 5: rating at 5 days
Description: as §2
Spodoptera eridania, 3rd instar larvae, southern armyworm
A Sieva limabean leaf expanded to 7-8 cm in length is dipped in the test solution with agitation for 3 seconds and allowed to dry in a hood. The leaf is then placed in a 100 x 10 mm petri dish containing a damp filterpaper on the bottom and ten 3rd instar caterpillars. At 3 and 5 days, observations are made of mortality, reduced feeding, or any interference with normal molting.
as §1

[8] = system: Empoasca abrupta, adult, western potato leafhopper; assay: Western potato leafhopper contact test, dipped limabean leaf; design: key: 0: no effect; 10-25% kill; 26-35% kill; 36-45% kill; 46-55% kill; 56-65% kill; 66-75% kill; 76-85% kill; 86-99% kill; 9: 100% kill; settings: mortality rating after 2 days
Description: as §2
Empoasca abrupta, adult, western potato leafhopper
A Sieva limabean leaf about 5 cm long is dipped in the test solution for 3 seconds with agitation and placed in a hood to dry. The treated leaf is placed in a 100 x 10 mm petri dish containing a moist filter paper and about 10 adult leafhoppers are added. After 2 days, mortality counts are made.
as §1

[9] = system: Empoasca abrupta, adult, western potato leafhopper; assay: Western potato leafhopper systemic uptake test; design: key: 0: no effect; 10-25% kill; 26-35% kill; 36-45% kill; 46-55% kill; 56-65% kill; 66-75% kill; 76-85% kill; 86-99% kill; 9: 100% kill; settings: 100 ppm; systemic uptake; rating scale 0-9
Description: Empoasca abrupta, adult, western potato leafhopper Systemic Uptake
An emulsion containing 0.1 gm of the test material, 0.2 gm of Emulphor EL-620® emulsifier, 10 mL of acetone and 90 mL of water is prepared and diluted 10-fold with water to give a 100 ppm emulsion. Subsequent 10-fold dilutions are made with water as needed. Sieva limabean plants, with the primary leaves expanded to a length of 7-8 cm, are cut off at least 3 cm above the soil level to avoid contamination with soil bacteria which will cause decay of the stem during the test. The cut stem is placed in the test emulsion and wrapped with a bit of cotton to hold the stem off the bottom of the bottle and to limit evaporation. The treated stem is maintained for 3 days at 27°C to allow the test compound to be taken up into the plant. Following this, one leaf is removed from the plant and placed in a 100 x 10 mm petri dish containing a moist filter paper and about 10 adult leafhoppers as described above. Mortality counts are made after 2 days.
as §1

[10] = 300 ppm, adult mites, rating scale 0-9
[11] = 300 ppm, mite eggs, rating scale 0-9
[12] = 300 ppm, mite nymphs, rating scale 0-9

| SMILES | OP-RESISTANT MITES Adult [2, 10] | OP-RESISTANT MITES Egg [2, 11] | OP-RESISTANT MITES Nymph [2, 12] | APHIDS ([3]; rating scale 0-9) | TOBACCO BUDWORM Egg ([4]; 1000 ppm) | ARMYWORM Stem Sys [5] | ARMYWORM Day 3 R [6] | ARMYWORM Day 5 R [6] | ARMYWORM Day 3 ([7]; 10 ppm) | ARMYWORM Day 5 ([7]; 10 ppm) | ARMYWORM Day 3 ([7]; 100 ppm) | ARMYWORM Day 5 ([7]; 100 ppm) | ARMYWORM Day 3 ([7]; 1000 ppm) | ARMYWORM Day 5 ([7]; 1000 ppm) | SOUTHERN CORN ROOTWORM ([1]; 50 (ppm as headed)) | TOBACCO BUDWORM Egg ([4]; 100 ppm) | LEAFHOPPER Systemic [9] | further results |
| --- | --- | --- | --- | --- | --- | --- | --- | --- | --- | --- | --- | --- | --- | --- | --- | --- | --- | --- |
| CCN=C(NCC)SCn1c(-c2ccc(Cl)cc2)c(C#N)c(Br)c1C(F)(F)F [Example 12] | 0 | 0 | 0 | 0 | 0 | 0 | 9 (100% kill) | 9 (100% kill) | 9 (100% kill) | 9 (100% kill) | 9 (100% kill) | 9 (100% kill) | 9 (100% kill) | 9 (100% kill) | – | – | – | SOUTHERN CORN ROOTWORM ([1]; 1 (ppm as headed)): 0 |
| N#Cc1c(Br)c(C(F)(F)F)n(CSC2=NCCCN2)c1-c1ccc(Cl)cc1 [Example 8] | – | – | – | – | 0 | 9 (100% kill) | 9 (100% kill) | 9 (100% kill) | 0 | – | 9 (100% kill) | – | 9 (100% kill) | – | 0 | 0 | – | LEAFHOPPER Contact ([8]; 10 ppm): 0; LEAFHOPPER Contact ([8]; 100 ppm): 8 (86-99% kill); OP-RESISTANT MITES Adult ([2]; 10 ppm, mortality rating after 2 days): 0; OP-RESISTANT MITES Nymph ([2]; 10 ppm, rating after 5 days): 0; OP-RESISTANT MITES Adult ([2]; 100 ppm, mortality rating after 2 days): 9 (100% kill); OP-RESISTANT MITES Nymph ([2]; 100 ppm, rating after 5 days): 8 (86-99% kill); OP-RESISTANT MITES Adult ([2]; 300 ppm, mortality rating after 2 days): 9 (100% kill); OP-RESISTANT MITES Egg ([2]; 300 ppm, rating after 5 days): 0; OP-RESISTANT MITES Nymph ([2]; 300 ppm, rating after 5 days): 0; APHIDS ([3]; spray, mortality rating after 2 days): 0 |
| N#Cc1c(Br)c(C(F)(F)F)n(CSc2ncc[nH]2)c1-c1ccc(Cl)cc1 [Example 1] | 0 | 0 | 0 | 0 | 0 | 0 | 9 (100% kill) | 9 (100% kill) | 9 (100% kill) | 9 (100% kill) | 9 (100% kill) | 9 (100% kill) | 9 (100% kill) | 9 (100% kill) | 0 | 0 | 0 | – |
| N#Cc1c(Br)c(C(F)(F)F)n(CSC2=NCCCCN2)c1-c1ccc(Cl)cc1 [Example 11] | 0 | 0 | 0 | 0 | 5 (56-65% kill) | 9 (100% kill) | 9 (100% kill) | 9 (100% kill) | 9 (100% kill) | 9 (100% kill) | 9 (100% kill) | 9 (100% kill) | 9 (100% kill) | 9 (100% kill) | 0 | 3 (36-45% kill) | 9 (100% kill) | – |
